Data taken from patent US7981875B2, “2″ oxo-voruscharin and derivatives thereof” (priority 2002, dated 2011).
Read-outs that look alike come from different tables or passages of the source.

Columns and labels:
Hs683 = assay: MTT test, overall cell growth; assay type: cell-based, human
Procedure: (§1) In order to characterize the in vitro activities of the compounds according to the invention, MTT tests were carried out. The MTT test, which is a well-known test in the art, is an indirect technique that rapidly measures, i.e. within 5 days, the effect of a given product on the overall cell growth. This test measures the number of metabolically active living cells that are able to transform the MTT product (3-(4,5-dimethylthiazol-2-yl)-2,5 diphenyl tetrazolium bromide), having a yellowish color, to the blue product formazan dye by mitochondrial reduction. The amount of formazan obtained at the end of the experiment is measured with a spectrophotometer and is directly proportional to the number of living cells. Determination of the optical density enables a quantitative measurement of the effect of the investigated compounds as compared to the control condition (untreated cells) and to compare it to other reference compound. In the following examples different compounds according to the invention were tested and compared to the reference compound being uscharin.
(§2) Six human cancer cell lines, described in Table C, were tested in the presence of compounds according to the invention. These cell lines covered four histological cancer types, being Glioma, colon, lung and bladder cancer. The cells were allowed to grow in 96-well micro wells with a flat bottom with an amount of 100 μl of cell suspension per well in reason to 4000 cells/well depending on cell type. Each cell line was seeded in its own cell culture medium (Table C).
(§3) After a 24-hour period of incubation at 37° C., the culture medium is replaced by 100 μl of fresh medium in which the compound to be tested has been dissolved at different required concentrations. Different compounds were tested at 10^−9 M, 5×10^−9 M, 10^−8 M, 5×10^−8 M, 10^−7 M, 5×10^−7 M, 10^−6 M, 5×10^−6 M et 10^−5 M. Each experimental condition is carried out in hexaplicate. The compounds tested are 2″ oxo-voruscharin, and compounds B, C, D, E, H and I represented in Table B above.
(§4) After 72 hours of incubation at 37° C. with the compound (experimental conditions) or without the compound (control condition), the medium was replaced by 100 μl MTT at the concentration of 1 mg/ml dissolved in RPMI. The micro wells were subsequently incubated during 3 hours at 37° C. and centrifuged at 400 g during 10 minutes. The MTT was removed and formazan crystals formed, were dissolved in 100 μl DMSO. The micro wells were shaken for 5 minutes and read on a spectrophotometer at the wavelengths of 570 nm corresponding to the maximum formazan absorbance wavelength, and of 630 nm, which is the background noise wavelength.
(§5) For each experimental condition, the mean OD associated with the SEM (standard error of the mean) for each condition (6 wells) was calculated. The percentage of remaining living cells in comparison with the control was calculated. Results of these experiments are represented in FIGS. 2 to 8.

A549 = assay: MTT test, overall cell growth; assay type: cell-based, human; conditions: 72 hours of incubation
Procedure: as §1, §2, §3, §4, §5

LoVo = assay: MTT test, overall cell growth; assay type: cell-based, human; conditions: 72 hours of incubation
Procedure: as §1, §2, §3, §4, §5

HCT-15 = assay: MTT test, overall cell growth; assay type: cell-based, human
Procedure: as §1, §2, §3, §4, §5

J82 = assay: MTT test, overall cell growth; assay type: cell-based, human
Procedure: as §1, §2, §3, §4, §5

U-373 MG = assay: MTT test, overall cell growth; assay type: cell-based, human; conditions: U-373, MTT, 72 hours of incubation
Procedure: as §1, §2, §3, §4, §5

[1] = Maximum Tolerated Dose in healthy mice; assay type: in vivo; conditions: single administration in mice, healthy animals, 14 days post-injection
Procedure: The Maximum Tolerated Dose (MTD) of a given drug is defined as the maximum amount of a drug which can be administered acutely (i.e. in one i.p., i.v., s.c. or per os single dose) to healthy animals, i.e. animals not grafted with tumors. The survival times and weights of the animals are recorded up to 14 days post-injection. Five different doses of each drug are used for the determination of the MTD index. When the MTD index is higher than 160 mg/kg (i.p. administration) the drug is usually considered to be non-toxic, and the highest dose administered to tumor-bearing mice is MTD/2=80 mg/kg. Each experimental group was composed of 3 mice for the determination of the MTD index.

PC-3 (Prostate) = assay: MTT test, overall cell growth; assay type: cell-based, human; conditions: PC-3 cell line
Procedure: as §1, with “In the following examples different compounds according to the invention were tested and compared to the reference compound being uscharin.” left out
as §4, with “The micro wells were subsequently incubated during 3 hours at 37° C. and centrifuged at 400 g during 10 minutes. The MTT was removed and formazan crystals formed, were dissolved in 100 μl DMSO.” left out, “wavelength. […]” for “wavelength.”

Capan-2 (Pancreas) = assay: MTT test, overall cell growth; assay type: cell-based, human; conditions: Capan-2 cell line
Procedure: as §1, with “In the following examples different compounds according to the invention were tested and compared to the reference compound being uscharin.” left out
as §4, with “The micro wells were subsequently incubated during 3 hours at 37° C. and centrifuged at 400 g during 10 minutes. The MTT was removed and formazan crystals formed, were dissolved in 100 μl DMSO.” left out, “wavelength. […]” for “wavelength.”

C32 (melanoma cancer) = assay: Sub-cutaneous melanoma cancer model; assay type: in vivo, mice; conditions: for T/C index: three times a week
Procedure: Three types of results were obtained with in vivo anti-tumor pharmacology: 1) the cumulative toxicity of chemotherapeutic administrations through recording the weights of the tumor-bearing mice during treatment, 2) the actual anti-tumor effect exerted at tumor growth level. If the tumor models are grafted subcutaneously (s.c.), tumor size is measured three times a week by means of a caliper and expressed as an area (mm^2) by multiplying together the two largest perpendicular diameters, and 3) the gain in survival for the animals treated, which is evaluated by means of the T/C index. This index is the ratio between the median survival time of the group of treated animals (T) and that of the control group. The drug is considered to be active if the T/C value is above 130% (P<0.05), and toxic for a value lower than 70%.
The antitumoral activity of compound B was evaluated in different xenografted models: sub-cutanous model: MCF-7-TD5 (breast cancer) and C32 (melanoma cancer) and orthotopic model: A549 (lung cancer).
Experimental melanomas were set up in mice by painting their skins with a carcinogen. These experimental melanomas display certain morphological characteristics close to those of human melanomas but are less aggressive biologically. Compound B was assayed at DMT/4 (20 mg/kg), DMT/8 (10 mg/kg) and DMT/16 (5 mg/kg) three times a week. […] Indeed the T/C index values measured were respectively 95%, 107% and 81%.

Work on `CC1CC2(NC(=O)CS2)C2(O)OC3CC4(C=O)C(CCC5C4CCC4(C)C(C6=CC(=O)OC6)CCC54O)CC3OC2O1` (stereo not drawn) [2″oxo-voruscharin, 2″ oxo-voruscharin] yielded an IC50 (Hs683; Homo sapiens, Hs 683, Hs683, MTT, 72 hours of incubation, read-out: IC50 value) of 1 to 5 nM, an IC50 (Hs683; Homo sapiens, Hs 683, Hs683, Table E, concentration used for flow cytometry, chosen in accordance with MTT results, read-out: IC50) of 170 nM and an IC30 (Hs683; Hs683, Table E, concentration which kills 30% of the cell population) of 8.3 nM. It also gave an IC50 (A549; Homo sapiens) of 10 to 50 nM, an IC50 (LoVo; Homo sapiens) of 5 to 10 nM and an IC30 (HCT-15; HCT-15, Table E, concentration which kills 30% of the cell population) of 4.1 nM. The IC50 (HCT-15; Homo sapiens, HCT-15, MTT, 72 hours of incubation, read-out: IC50 value) was 10 to 50 nM, the IC50 (HCT-15; Homo sapiens, HCT-15, Table E, concentration used for flow cytometry, chosen in accordance with MTT results, read-out: IC50) was 12 nM and the IC50 (J82; Homo sapiens, J82, MTT, 72 hours of incubation, read-out: IC50 value) was greater than 10000 nM. For the same compound, the IC50 (J82; Homo sapiens, J82, Table E, concentration used for flow cytometry, chosen in accordance with MTT results, read-out: IC50) was 4100 nM, the IC30 (J82; J82, Table E, concentration which kills 30% of the cell population) was 1700 nM and the IC50 (U-373 MG; Homo sapiens, U373 MG) was 10 to 50 nM. For the same compound, the MTD index [1] was 20 mg/kg.

Compound `CC1CC2(NC(=O)CS2)C2(O)OC3CC4(CO)C(CCC5C4CCC4(C)C(C6=CC(=O)OC6)CCC54O)CC3OC2O1` (stereo not drawn) [Compound B] has an IC50 (PC-3 (Prostate)) of 5 to 10 nM, an IC50 (Capan-2 (Pancreas)) of 1 nM and an IC50 (Hs683; Hs683, MTT, 72 hours of incubation, read-out: IC50 value) of 1000 to 5000 nM. For the same compound, the IC50 (A549) was 10 nM, the IC50 (LoVo) was 1 to 5 nM and the IC50 (HCT-15; HCT-15, MTT, 72 hours of incubation, read-out: IC50 value) was 10 to 50 nM. The IC50 (J82; J82, MTT, 72 hours of incubation, read-out: IC50 value) was 5000 to 10000 nM, the IC50 (U-373 MG) was 10 to 50 nM and the T/C index (C32 (melanoma cancer); C32, 21×5 mg/kg) was 81%. For the same compound, the T/C index (C32 (melanoma cancer); C32, 25×20 mg/kg) was 95%, the T/C index (C32 (melanoma cancer); C32, 28×10 mg/kg) was 107% and the tumor area (C32 (melanoma cancer); C32-tumor bearing mice, most important effect at 10 mg/kg) was “decreased the tumor area”. For the same compound, the “weight of C32-tumor bearing mice (toxic side effects)” value (C32 (melanoma cancer); constant administration, 20, 10 and 5 mg/kg) was “did not loose any significant weight” and the MTD index [1] was 80 mg/kg.
